Assay results from PubChem BioAssay (NCI).
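Exposure lasted 48 hours, with cells grown in 96-well plates and compounds tested at five concentrations. GI50 is the concentration that inhibits growth by half. TGI is the concentration that stops growth completely.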

Key:
Test in all cases: inhibition of tumour cell growth, NCI panel, 48 h
786-0 renal = test system: 786-0 renal
MOLT-4 leukemia = test system: MOLT-4 leukemia
UACC-62 melanoma = test system: UACC-62 melanoma
OVCAR-3 ovarian = test system: OVCAR-3 ovarian
SK-OV-3 ovarian = test system: SK-OV-3 ovarian
SF-539 CNS = test system: SF-539 CNS
CCRF-CEM leukemia = test system: CCRF-CEM leukemia
MALME-3M melanoma = test system: MALME-3M melanoma
HOP-62 NSCLC = test system: HOP-62 NSCLC
A549 NSCLC = test system: A549 NSCLC
SF-268 CNS = test system: SF-268 CNS
OVCAR-8 ovarian = test system: OVCAR-8 ovarian
MCF7 breast = test system: MCF7 breast
NCI/ADR-RES ovarian = test system: NCI/ADR-RES ovarian
NCI-H23 lung = test system: NCI-H23 lung
IGROV1 ovarian = test system: IGROV1 ovarian
OVCAR-5 ovarian = test system: OVCAR-5 ovarian
EKVX NSCLC = test system: EKVX NSCLC
NCI-H226 lung = test system: NCI-H226 lung
T-47D breast = test system: T-47D breast
HCT-116 colon = test system: HCT-116 colon
MDA-MB-231 breast = test system: MDA-MB-231 breast
DU-145 prostate = test system: DU-145 prostate
A498 renal = test system: A498 renal
KM12 colon = test system: KM12 colon
SK-MEL-2 melanoma = test system: SK-MEL-2 melanoma

Cn1cc(-c2cc3nc(-c4cn(C)c5ncccc45)cc(N)n3n2)c2ccccc21
GI50 (786-0 renal): 1.68 µM
TGI (786-0 renal): 3.16 µM
GI50 (MOLT-4 leukemia): 2.38 µM
TGI (MOLT-4 leukemia): 8.9 µM
GI50 (UACC-62 melanoma): 1.73 µM
TGI (UACC-62 melanoma): 3.34 µM
GI50 (OVCAR-3 ovarian): 3.08 µM
TGI (OVCAR-3 ovarian): 11.4 µM
GI50 (SK-OV-3 ovarian): 21 µM
TGI (SK-OV-3 ovarian): 69.3 µM
GI50 (SF-539 CNS): 1.8 µM
TGI (SF-539 CNS): 3.71 µM
GI50 (CCRF-CEM leukemia): 2.52 µM
TGI (CCRF-CEM leukemia): 6.49 µM
GI50 (MALME-3M melanoma): 1.86 µM
TGI (MALME-3M melanoma): 3.3 µM
GI50 (HOP-62 NSCLC): 4.5 µM
TGI (HOP-62 NSCLC): 20.7 µM
GI50 (A549 NSCLC): 4.6 µM
TGI (A549 NSCLC): > 100 µM
GI50 (SF-268 CNS): 17.2 µM
TGI (SF-268 CNS): > 100 µM
GI50 (OVCAR-8 ovarian): 5.63 µM
TGI (OVCAR-8 ovarian): > 100 µM
GI50 (MCF7 breast): 3.38 µM
TGI (MCF7 breast): 24.2 µM
GI50 (NCI/ADR-RES ovarian): 5.02 µM
TGI (NCI/ADR-RES ovarian): 24.9 µM
GI50 (NCI-H23 lung): 10 µM
TGI (NCI-H23 lung): 41.2 µM
GI50 (IGROV1 ovarian): 2.84 µM
TGI (IGROV1 ovarian): 8.11 µM
GI50 (OVCAR-5 ovarian): 8.81 µM
TGI (OVCAR-5 ovarian): 98.9 µM
GI50 (EKVX NSCLC): 10.7 µM
TGI (EKVX NSCLC): 51.3 µM
GI50 (NCI-H226 lung): 2.7 µM
TGI (NCI-H226 lung): 7.12 µM
GI50 (T-47D breast): 5.77 µM
TGI (T-47D breast): 74.7 µM
GI50 (HCT-116 colon): 2.56 µM
TGI (HCT-116 colon): 6.9 µM
GI50 (MDA-MB-231 breast): 2.99 µM
TGI (MDA-MB-231 breast): 9.7 µM
GI50 (DU-145 prostate): 9.59 µM
TGI (DU-145 prostate): 52.9 µM
GI50 (A498 renal): 17.6 µM
TGI (A498 renal): 37 µM
GI50 (KM12 colon): 3.84 µM
TGI (KM12 colon): > 100 µM
GI50 (SK-MEL-2 melanoma): 2.17 µM
TGI (SK-MEL-2 melanoma): 5.5 µM
